Measurements reported in patent US20080269337A1, “Method for the enhancing biocidal activity” (priority 2007, published 2008).

What was measured:
[1] = tested on: aqueous industrial systems; settings: U.S. Pat. Nos. 5,607,597 and 5,736,056; cited from earlier work
B. cereus ATCC14579 = assay: B. cereus in synthetic medium, serial dilution and plating; format: cell-based; settings: 20 mg/l bistridecylsulfosuccinate with 1 or 2 mg/l isothiazolinone
Text: The spore forming bacterium B. cereus is of particular concern because of its pathogenic properties. Most incidents of food poisoning attributed to the genus Bacillus are caused by B. cereus. B. cereus is a common concern in production of dairy products. There is particular concern about this organism in powered milk based products for infants. This is a concern not only to producers of these goods but also to the manufacturers of packaging and containers for such products. […] A culture of B. cereus ATCC14579 was treated with isothiazolinone alone and isothiazolinone with bistridecylsulfosuccinate One ml of bacteria from an overnight culture was used to innocculate shake flasks containing 50 mls of fresh synthetic medium. The synthetic medium (as described previously) was dosed with isothiazolinone at one or two mg/l concentration; or isothiazolinone in conjunction with 20 mg/l bistridecylsulfosuccinate. Cultures were maintained shaking at 37° C. then carried through serial dilution and plated at 3 and 5 hour time points.

B. subtilus (ATCC23059) = assay: B. subtilus in synthetic medium, serial dilution and plating; format: cell-based
Method: By definition a potentiator compound will not, by itself, kill or inhibit the bacterial population. The non-toxicity of bistridecylsulfosuccinate to B. subtilus is illustrated in Table 4. One ml of bacteria from an overnight culture was used to innocculate shake flasks containing 50 mls of fresh synthetic medium. The synthetic medium (as described previously) was augmented with increasing amounts of bistridecylsulfosuccinate. Serial dilution and plating was carried out to compare the efficacy of each treatment. The culture of B. subtilus was grown in the presence of 0, 5, 10, and 20 mg/l bistridecylsulfosuccinate (Btdss). Plating was carried out at 2.5 hours and 5 hours of incubation. […] The control had no treatment.

CCCCC(CC)COC(=O)CC(C(=O)OCC(CC)CCCC)S(=O)(=O)O (stereo not drawn) [dioctyl, dioctylsulfosuccinate]
Effect on efficacy of isothiazolinone [1]: enhance the efficacy of isothiazolinone

bistridecylsulfosuccinate [Btdss]
Effect on efficacy of isothiazolinone against B. cereus (B. cereus ATCC14579): greatly enhanced the efficacy of isothiazolinone | Effect on efficacy of isothiazolinone [1]: loss of efficacy | B. subtilus count in synthetic medium (B. subtilus (ATCC23059); 5 mg/l Btdss alone, 2.4 Hour): 3.40 × 10^6 | B. subtilus count in synthetic medium (B. subtilus (ATCC23059); 5 mg/l Btdss alone, 5 Hour): 4.00 × 10^6 | B. subtilus count in synthetic medium (B. subtilus (ATCC23059); 10 mg/l Btdss alone, 2.4 Hour): 2.8 × 10^6 | B. subtilus count in synthetic medium (B. subtilus (ATCC23059); 10 mg/l Btdss alone, 5 Hour): 3.90 × 10^7 | B. subtilus count in synthetic medium (B. subtilus (ATCC23059); 20 mg/l Btdss alone, 2.4 Hour): 3.00 × 10^6 | B. subtilus count in synthetic medium (B. subtilus (ATCC23059); 20 mg/l Btdss alone, 5 Hour): 3.6 × 10^7 | Growth of treated cultures relative to the untreated control (B. subtilus (ATCC23059); 5, 10, and 20 mg/l bistridecylsulfosuccinate alone): increased growth relative to the untreated control | Toxicity to B. subtilus (B. subtilus (ATCC23059); alone, at concentrations at least as high as 20 mg/l): non-toxic

dinonylsulfosuccinates
Effect on efficacy of isothiazolinone [1]: enhance the efficacy of isothiazolinone
